Assay results as given in patent publication US20250270216A1, “ANTI-INFECTIVE AGENTS” (UNIVERSITY OF DUNDEE, priority 2022, published 2025).

How the values were obtained:
Cryptosporidium parvum = assay: In vitro inhibition of Cryptosporidium (method of Bessoff et al.); format: cell-based; conditions: read-out: C. parvum PEC50 (converted)
From the text: Assay Method for Measurement of In Vitro Inhibition of Cryptosporidium
These experiments were run in accordance with the method of Besssoff et. al. Antimicrob. Agents Chemother. 2013, 57:1804-1814. Results from these experiments are provided in the Experimental Results hereinafter.

[1] = molecular target: T1, Human lysyl tRNA Synthetase (KRS) (Homo sapiens, UniProt Q15046); assay: In vitro inhibition of human lysyl tRNA synthetase (KRS), Biomol green phosphate detection; format: biochemical; conditions: 3.5 μM ATP, 6 μM L-Lysine, 5 h room temperature; read-out: Hs KRS pIC50 (converted)
T1 construct: His tag with PreScission site (His PP pET15b); made in house; host or cells: E. coli BL21 (DE3)
T1 sequence (Q15046 whole entry): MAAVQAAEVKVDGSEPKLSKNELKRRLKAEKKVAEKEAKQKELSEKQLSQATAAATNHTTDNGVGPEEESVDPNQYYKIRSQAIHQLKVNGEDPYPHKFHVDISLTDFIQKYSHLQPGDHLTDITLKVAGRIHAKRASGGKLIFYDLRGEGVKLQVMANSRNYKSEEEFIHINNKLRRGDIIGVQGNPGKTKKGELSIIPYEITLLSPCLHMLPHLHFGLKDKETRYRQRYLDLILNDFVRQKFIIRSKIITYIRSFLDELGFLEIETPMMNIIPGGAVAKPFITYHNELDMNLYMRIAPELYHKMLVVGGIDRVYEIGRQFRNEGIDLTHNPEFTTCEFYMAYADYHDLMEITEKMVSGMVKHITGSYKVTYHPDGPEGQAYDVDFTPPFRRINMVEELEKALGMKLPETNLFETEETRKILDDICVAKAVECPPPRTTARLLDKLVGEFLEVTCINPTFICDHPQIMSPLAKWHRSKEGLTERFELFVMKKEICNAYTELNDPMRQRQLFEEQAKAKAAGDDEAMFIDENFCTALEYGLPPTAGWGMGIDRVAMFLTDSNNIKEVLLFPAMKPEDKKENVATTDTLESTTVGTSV
Description: The gene coding for Human KRS, codon optimized for expression in E. coli, was obtained from Genscript and cloned into a His PP pET15b vector using Nde1 and Xho1 restriction sites. The resulting vector was used to transform BL21 (DE3) competent cells for protein expression. A 120 ml overnight culture was set up and grown at 37° C. 200 rpm for 16 h and used the next day to inoculate 6 litres of Autoinduction+AMP medium. This culture was grown at 37° C. for 4 h then 20° C. for 20 h. The cells were harvested by centrifugation at 3,500 g for 30 min then stored at −20° C. The resulting cell pellet was 50 g. Lysis buffer (150 ml, 25 mM HEPES/500 mM NaCl/20 mM imidazole/2 mM DTT/10% glycerol pH 7.5/protease inhibitor tablets/DNAase) was added and the pellets for defrosted at room temperature for approximately 10 min. The slurry was then passed through a Cell Disrupter (Constant Systems) set at […] to lyse the cells. The sample was then centrifuged at 40,000 g for 20 min. The supernatant was then filtered using syringe filters to 0.45 μm. The supernatant was loaded onto a 5 ml HiTrap Ni HP column that had been equilibrated with BufferA (25 mM HEPES/500 mM NaCl/20 mM Imidazole/2 mM DTT/10% Glycerol pH 7.5) at 5 ml/min using an AKTA Pure system. Once loaded the column was washed with 10 column volumes buffer A. A 5% step of Buffer B (25 mM HEPES/500 mM NaCl/500 mM Imidazole/2 mM DTT/10% Glycerol pH 7.5) was then used to wash off His rich contaminating proteins. A gradient of 5-50% B was used to elute the protein. Approximately 55 mg of protein was present in the fractions containing the HsKRS protein. The sample was then passed through a 0.2 μm filter, before loading onto a XK26/60 Superdex 200 column equilibrated with Buffer C (25 mM HEPES/150 mM NaCl/2 mM DTT/10% glycerol pH 7.0) using an AKTA Pure system at 4° C. at 2 ml/min. The sample was then dialyzed into 25 mM HEPES/500 mM NaCl//2 mM DTT/10% glycerol/0.25% azide pH 7.0. The protein was concentrated to 1 mg/ml and frozen at −80° C. Approximately 23 mg of protein was produced.
Assay Method for Measurement of In Vitro Inhibition of Human lysyl tRNA Synthetase (KRS)
Potency of compounds was determined in 10 points dose-response inhibition curves. Compounds were transferred into 384-well clear bottom plates (Greiner Bio-One, 781101) using an Echo 550 acoustic dispenser (Labcyte). Using an automatic liquid dispenser, 50 μL reaction mixes were prepared by adding 25 μL of substrate mix into all wells followed by the addition of 25 μL enzyme mix into all wells (final reaction: 30 mM Tris-HCl, pH 8.0, 40 mM MgCl2, 140 mM NaCl, 30 mM KCl, 0.01% Brij-35, 1 mM DTT, 3.5 μM ATP, 6 μM L-Lysine, 200 nM […] and 0.5 U/mL Pyrophosphatase). Complete inhibition control reactions were performed in the presence of 100 μM of control compoundand the plates were incubated at room temperature for 5 h. Reactions were stopped by the addition of Biomol green (50 μL: Enzo Life Sciences) with the amount of free phosphate detected by measuring absorbance (650 nm) after 20 min further incubation (BMG Pherastar plate reader). Counter screen assays to eliminate direct inhibition of pyrophsphatase were performed using 0.5 U/mL pyrophosphatase and 3 μM pyrophosphate as substrate in the same assay buffer (30 mM Tris-HCl, pH 8.0, 40 mM MgCl2, 140 mM NaCl, 30 mM KCl, 0.01% Brij-35, 1 mM DTT) for 5 hours at room temperature. Biomol green was added and incubated for 20 min before detection as above. Samples were run in duplicate and data was processed and analysed using ActivityBase (IDBS).

[2] = system: Hep G2 (Human hepatocyte carcinoma); assay: In vitro inhibition of HepG2 cells (cytotoxicity); format: cell-based; conditions: read-out: Hs HepG2 PEC50 (converted)
From the text: Assay Method for Measurement of In Vitro Inhibition of HepG2 Cells (Cytotoxicity)
These experiments were run in accordance with the method of Mersch-Sundermann V et. al. Toxicology 2004, 198:329-340

SMILES | EC50 (Cryptosporidium parvum) | IC50 [1] | EC50 [2]
Cc1nc(N)nc2c1C(=O)N(C[C@@H]1CCC[C@H](C(F)(F)F)C1)C2 [Compound 2, 2-amino-4-methyl-6-(((1R,3S)-3-(trifluoromethyl)cyclohexyl)methyl)-6,7-dihydro-5H-pyrrolo[3,4-d]pyrimidin-5-one] | 0.02 µM | 20 µM | 12.6 µM
Nc1nc2c(c(C(F)(F)F)n1)C(=O)N(C[C@@H]1CCC[C@H](C(F)(F)F)C1)C2 [Compound 1, 2-amino-4-(trifluoromethyl)-6-(((1R,3S)-3-(trifluoromethyl)cyclohexyl)methyl)-6,7-dihydro-5H-pyrrolo[3,4-d]pyrimidin-5-one] | 0.0316 µM | 20 µM | 25.1 µM
Nc1nc2c(c(C(F)F)n1)C(=O)N(C[C@@H]1CCC[C@H](C(F)(F)F)C1)C2 [Compound 3, 2-amino-4-(difluoromethyl)-6-(((1R,3S)-3-(trifluoromethyl)cyclohexyl)methyl)-6,7-dihydro-5H-pyrrolo[3,4-d]pyrimidin-5-one] | 0.0251 µM | > 100 µM | 25.1 µM
Nc1nc2c(c(C(F)(F)F)n1)C(=O)N(CC1CCCC3(CC3)C1)C2 (racemic) [Compound 4, 2-amino-6-(spiro[2.5]octan-5-ylmethyl)-4-(trifluoromethyl)-6,7-dihydro-5H-pyrrolo[3,4-d]pyrimidin-5-one] | 0.158 µM | > 100 µM | 20 µM
